This is an account of results in patent publication US20040043377A1, “Evaluation method for predicting pharmacokinetics of PM using PM liver cells of drug metabolozing enzyme cytochrome P450 having a genetic polymorphism” (Pfizer Inc, priority 2002, published 2004).

One may read the Km as the substrate concentration at which the rate is half of its maximum.

Read-outs that look alike come from different tables or passages of the source.

The subject of data set [1] is isolated EM liver cells (Lot 70). Kind of data set: Dextromethorphan metabolism in cryopreserved isolated EM liver cells (Lot 70). The class given is in vitro ADME, human. Here is the method:
(§1) A preliminary test for evaluation metabolic reactions was conducted by selecting dextromethorphan (DM, analgesic agent) as the substrate of CYP2D6. Metabolism of DM in the clinical setting is known to proceed by N-demethylation, O-demethylation followed by glucuronic acid conjugation. CYP3A4 catalyzes the N-demethylation reaction, while CYP2D6 catalyzes the O-demethylation reaction. In PM of […], N-demethylation is known to proceed as a compensatory metabolic pathway of O-demethylation. In the present embodiment, metabolic reactions were examined for dextromethorphan using isolated PM liver cells of CYP2D6, and a discussion was made as to whether or not the pharmacokinetics of PM can be predicted.
(§2) The cryopreserved isolated PM liver cells of PM of CYP2D6 that were used (Lot 64) and the cryopreserved isolated EM liver cells (Lot 70) were prepared at In Vitro Technologies (IVT), USA. Liver cells for which the activity of CYP3A4 was roughly equal to that of Lot 64 of the cryopreserved isolated PM liver cells were selected by referring to data provided by IVT for use as the cryopreserved isolated EM liver cells. The acquired cells consisted of 6×10^6 cells per vial for both lots.
Krebs Henseleit buffer (adjusted to pH 7.4 following addition of calcium chloride dihydrate (0.373 g/L), sodium bicarbonate (2.1 g/L) and HEPES (1.5 g/L)) was used for the incubation medium. The cryopreserved human isolated liver cells were inoculated into a 96-well plate and used for testing while suspended in culture liquid. Dextromethorphan (DM), which is the substrate of CYP2D6, was added to the wells at final concentrations of 0.08, 0.4, 2, 10 and 50 μM and allowed to react at 37° C. The reaction liquid was sampled after 1 and 2 hours, and the parent compound (DM) along with dextrorphan (DEX: metabolite mainly produced by CYP2D6) and 3-methoxymorphinan (3-MM: metabolite mainly produced by CYP3A4) were respectively assayed. […]

The next data set deals with PM liver microsomes. Kind of data set: Metabolite formation in PM liver microsomes (Lot. No. HHM-0168). The class given is in vitro ADME, human. Here is the method: Incubation reactions from the determination of the enzymatic kinetic parameters were carried out at a protein concentration of 0.2 mg/ml in 100 mM potassium phosphate, pH 7.4 containing 1.3 mM NADP^+, 0.93 mM NADH, 3.3 mM glucose-6-phosphate, 8 units/ml G-6-PDH, 3.3 mM MgCl2, and substrates. Reactions were initiated by the addition of NADP^+/NADH, and then terminated after 10 min incubation at 37° C. by the addition of ten-fold volume of acetonitrile containing an LC/MS/MS internal standard (Levallorphan at 100 ng/ml final conc.). The mixtures were centrifuged for 10 min, and supernatants were used for LC/MS/MS analyses to determine the production rates of metabolites.
On the technique in general: Microsomes from liver hold many membrane-bound enzymes, among them those of drug oxidation.

A further data set deals with CYP2D6 (Homo sapiens, UniProt P10635). The settings on record: cited from earlier work.
Chain of CYP2D6 (P10635 whole entry): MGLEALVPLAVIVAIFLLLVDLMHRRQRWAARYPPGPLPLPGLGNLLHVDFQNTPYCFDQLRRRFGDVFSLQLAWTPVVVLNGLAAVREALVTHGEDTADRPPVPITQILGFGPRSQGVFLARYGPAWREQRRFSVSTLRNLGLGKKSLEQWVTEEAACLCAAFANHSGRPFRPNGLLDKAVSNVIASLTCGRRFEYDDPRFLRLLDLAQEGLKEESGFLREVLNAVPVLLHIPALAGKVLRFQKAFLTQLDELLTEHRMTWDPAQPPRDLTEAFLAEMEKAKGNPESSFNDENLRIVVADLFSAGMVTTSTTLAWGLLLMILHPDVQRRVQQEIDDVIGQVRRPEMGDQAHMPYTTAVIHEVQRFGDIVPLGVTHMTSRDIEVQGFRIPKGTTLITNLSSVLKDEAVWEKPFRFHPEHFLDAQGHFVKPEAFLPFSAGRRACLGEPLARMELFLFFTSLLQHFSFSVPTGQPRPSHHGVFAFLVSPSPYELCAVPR
The test system of data set [2] is isolated PM liver cells of CYP2D6 (Lot 64). The data set can be described thus: Dextromethorphan metabolism in cryopreserved isolated PM liver cells of CYP2D6 (Lot 64). The class given is in vitro ADME, human. The procedure:
as §1, §2
Krebs Henseleit buffer (adjusted to pH 7.4 following addition of calcium chloride dihydrate (0.373 g/L), sodium bicarbonate (2.1 g/L) and HEPES (1.5 g/L)) was used for the incubation medium. The cryopreserved human isolated liver cells were inoculated into a 96-well plate and used for testing while suspended in culture liquid. Dextromethorphan (DM), which is the substrate of CYP2D6, was added to the wells at final concentrations of 0.08, 0.4, 2, 10 and 50 μM and allowed to react at 37° C. The reaction liquid was sampled after 1 and 2 hours, and the parent compound (DM) along with dextrorphan (DEX: metabolite mainly produced by CYP2D6) and 3-methoxymorphinan (3-MM: metabolite mainly produced by CYP3A4) were respectively assayed. In addition, with respect to assay of the conjugate (glucuronide), DEX obtained by hydrolysis following the addition of β-glucuronidase/allylsulfatase to the sampled reaction liquid was assayed, and the difference with DEX prior to hydrolysis was taken to be the amount of the conjugate. LC/MS/MS were used for analyzing the unchanged form and metabolites in the culture liquid.
Furthermore, LC/MS/MS were carried out under the measurement conditions described below. HPLC: Waters 2790, MS: API365 Sciex, column: YMC J′ sphere ODS L80 2×35 mm, gradient: mobile phase A [CH3CN:10 mM CH3CO2NH4 aqueous solution=10:90], mobile phase B [CH3CN:10 mM CH3CO2NH4 aqueous solution=80:20], conditions [mobile phase flow rate 0.35 ml/minute, composition of mobile phase changed from A:B=100:0 to A:B=0:100 1 minute after sample injection, followed by allowing composition of A:B=0:100 to flow for 1 minute], MS/MS detection: DM=272.3/170.9, DEX=258.2/157.1, 3-MM=258.2/215.0, MDZ=326.1/291.1, 4-OH MDZ=342.1/324.1.

For data set [3] the following is noted: clinical dose level (about 20 mg/body); cited from earlier work.

With `COc1ccc2c(c1)[C@]13CCCC[C@@H]1[C@H](C2)N(C)CC3` [DM, dextromethorphan], the “formation rate of 3-MM relative to DEX formation rate” value is given as “less than one-tenth” in data set [1] (EM liver cells) and “comparable to the DEX formation rates” in data set [2] (PM liver cells). For the same molecule, the “formation rate of metabolite DEX” value in data set [1] (EM liver cells, DM 0.08-50 μM) is “increased concentration-dependently”. In addition, the “glucuronic acid conjugation reaction (DEX-glucuronide formation)” value in data set [1] (isolated EM liver cells lot 70) and in data set [2] (isolated PM liver cells lot 64) was “clearly determined to proceed” each time. Further, the “differences in 3-MM/1'OH-MDZ formation rate between PM and EM liver microsomes” value with PM liver microsomes (FIG. 6) is “not statically significance”. For the same molecule, the compensatory metabolic pathway result in the data set on PM liver microsomes (PM microsomes) was “did not proceed”. Moreover, the Km at CYP2D6 was about 2 µM. Moreover, the DEX formation result in data set [2] is recorded as “not detected”; in data set [2] (PM liver cells, DM 10 μM and 50 μM) it was “formation of DEX was observed”; in data set [2] (PM, in the vicinity of concentration of DM in the blood (up to 1 μM)), “only slight formation of DEX”. Besides, the “3-MM formation rate versus EM liver cells” value in data set [2] (CYP2D6 PM liver cells) is “greater than that in EM liver cells”. For the same molecule, in data set [2] (FIG. 5), the “differences in 3-MM/1'OH-MDZ formation rate between PM and EM liver cells (hepatocytes)” value is “large”. Also, in data set [3], the “concentration of DM in the blood” value is given as “up to 1 μM”.
